Experimental data published in patent US9999622B2, “Pyrazolothiazole compound and medicine comprising same” (NIPPON SHINYAKU CO., LTD., priority 2014, dated 2018).
Counter-ions that a name gives are not always drawn.

How the values were obtained:
Format in all cases: biochemical
JAK1 = target: T1, JAK1 (Homo sapiens, UniProt P23458); assay: JAK tyrosine kinase inhibitory activity in the presence of 1 mM ATP (ELISA), JAK1
T1 construct: purchased Carna Biosciences, Inc
Procedure, shortened: (§1)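 ELISA read-out: HRP-labelled anti-phosphotyrosine antibody with TMB, absorbance 450 nm, after 1 h kinase reaction at 30 °C in presence of 1 mM ATP. Kinase diluted to 7.5 nM (JAK1) or 0.75 nM (JAK2/JAK3) in Tris-HCl pH 7.5 buffer with DTT; compounds tested in duplicate.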

JAK2 = target: T2, JAK2 (Homo sapiens, UniProt O60674); assay: JAK tyrosine kinase inhibitory activity in the presence of 1 mM ATP (ELISA), JAK2
T2 construct: purchased Carna Biosciences, Inc
Procedure, shortened: as §1

JAK3 = target: T3, JAK3 (Homo sapiens, UniProt P52333); assay: JAK tyrosine kinase inhibitory activity in the presence of 1 mM ATP (ELISA), JAK3
T3 construct: purchased Carna Biosciences, Inc
T3 sequence (P52333 1-1124): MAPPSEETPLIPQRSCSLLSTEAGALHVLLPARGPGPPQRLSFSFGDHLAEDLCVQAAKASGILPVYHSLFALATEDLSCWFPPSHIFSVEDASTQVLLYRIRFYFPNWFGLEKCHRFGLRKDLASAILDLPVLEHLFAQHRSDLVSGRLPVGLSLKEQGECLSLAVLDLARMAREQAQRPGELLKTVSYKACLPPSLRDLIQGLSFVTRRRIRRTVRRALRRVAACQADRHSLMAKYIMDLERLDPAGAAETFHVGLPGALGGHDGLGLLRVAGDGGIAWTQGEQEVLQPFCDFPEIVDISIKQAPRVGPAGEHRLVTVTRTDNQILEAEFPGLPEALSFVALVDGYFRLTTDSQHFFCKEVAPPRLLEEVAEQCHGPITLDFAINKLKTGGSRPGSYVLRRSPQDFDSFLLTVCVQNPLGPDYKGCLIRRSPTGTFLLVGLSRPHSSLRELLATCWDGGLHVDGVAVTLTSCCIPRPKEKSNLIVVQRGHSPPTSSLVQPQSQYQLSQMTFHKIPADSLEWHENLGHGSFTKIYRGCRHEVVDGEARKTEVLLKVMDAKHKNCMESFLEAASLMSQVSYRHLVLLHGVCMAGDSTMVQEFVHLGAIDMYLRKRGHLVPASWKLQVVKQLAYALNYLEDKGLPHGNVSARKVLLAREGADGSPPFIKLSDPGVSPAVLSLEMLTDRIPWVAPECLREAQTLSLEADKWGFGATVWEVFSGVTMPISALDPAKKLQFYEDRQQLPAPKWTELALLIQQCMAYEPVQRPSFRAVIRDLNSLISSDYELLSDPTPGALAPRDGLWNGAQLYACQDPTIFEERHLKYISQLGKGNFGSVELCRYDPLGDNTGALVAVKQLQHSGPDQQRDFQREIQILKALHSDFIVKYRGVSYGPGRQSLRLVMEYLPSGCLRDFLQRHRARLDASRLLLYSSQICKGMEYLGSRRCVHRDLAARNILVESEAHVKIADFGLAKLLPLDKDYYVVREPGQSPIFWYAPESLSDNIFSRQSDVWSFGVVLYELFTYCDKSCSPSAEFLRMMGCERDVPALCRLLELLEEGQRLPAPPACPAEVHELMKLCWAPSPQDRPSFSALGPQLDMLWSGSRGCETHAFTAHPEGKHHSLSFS
Procedure, shortened: as §1

T2 sequence (O60674 whole entry): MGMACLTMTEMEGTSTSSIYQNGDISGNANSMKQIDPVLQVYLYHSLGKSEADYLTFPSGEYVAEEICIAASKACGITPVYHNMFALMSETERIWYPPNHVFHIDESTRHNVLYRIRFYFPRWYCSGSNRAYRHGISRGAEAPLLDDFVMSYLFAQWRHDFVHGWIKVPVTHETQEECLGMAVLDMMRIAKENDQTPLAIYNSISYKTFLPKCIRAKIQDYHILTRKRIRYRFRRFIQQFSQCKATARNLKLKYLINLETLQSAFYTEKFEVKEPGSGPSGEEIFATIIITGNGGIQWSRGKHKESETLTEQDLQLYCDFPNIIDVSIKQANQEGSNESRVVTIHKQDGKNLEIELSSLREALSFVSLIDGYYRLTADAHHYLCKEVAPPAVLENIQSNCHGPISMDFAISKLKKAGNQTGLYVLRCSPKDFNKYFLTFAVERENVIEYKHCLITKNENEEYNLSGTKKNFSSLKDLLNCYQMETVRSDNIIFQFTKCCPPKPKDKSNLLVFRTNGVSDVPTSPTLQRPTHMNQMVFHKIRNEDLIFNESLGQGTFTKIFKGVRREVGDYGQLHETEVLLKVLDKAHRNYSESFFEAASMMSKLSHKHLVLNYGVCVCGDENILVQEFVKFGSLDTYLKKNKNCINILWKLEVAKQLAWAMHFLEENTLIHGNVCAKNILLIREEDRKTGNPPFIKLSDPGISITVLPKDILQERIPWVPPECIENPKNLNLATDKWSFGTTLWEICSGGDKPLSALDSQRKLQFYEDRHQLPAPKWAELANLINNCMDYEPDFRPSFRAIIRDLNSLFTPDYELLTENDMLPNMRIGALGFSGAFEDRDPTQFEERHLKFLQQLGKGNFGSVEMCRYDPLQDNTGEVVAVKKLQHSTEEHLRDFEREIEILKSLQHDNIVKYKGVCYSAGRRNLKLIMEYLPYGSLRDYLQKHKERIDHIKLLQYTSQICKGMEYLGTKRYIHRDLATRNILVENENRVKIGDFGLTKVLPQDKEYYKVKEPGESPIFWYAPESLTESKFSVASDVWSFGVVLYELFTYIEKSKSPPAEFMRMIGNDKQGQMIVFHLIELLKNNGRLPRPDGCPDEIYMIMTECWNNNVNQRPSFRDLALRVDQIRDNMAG
T1 sequence (P23458 whole entry): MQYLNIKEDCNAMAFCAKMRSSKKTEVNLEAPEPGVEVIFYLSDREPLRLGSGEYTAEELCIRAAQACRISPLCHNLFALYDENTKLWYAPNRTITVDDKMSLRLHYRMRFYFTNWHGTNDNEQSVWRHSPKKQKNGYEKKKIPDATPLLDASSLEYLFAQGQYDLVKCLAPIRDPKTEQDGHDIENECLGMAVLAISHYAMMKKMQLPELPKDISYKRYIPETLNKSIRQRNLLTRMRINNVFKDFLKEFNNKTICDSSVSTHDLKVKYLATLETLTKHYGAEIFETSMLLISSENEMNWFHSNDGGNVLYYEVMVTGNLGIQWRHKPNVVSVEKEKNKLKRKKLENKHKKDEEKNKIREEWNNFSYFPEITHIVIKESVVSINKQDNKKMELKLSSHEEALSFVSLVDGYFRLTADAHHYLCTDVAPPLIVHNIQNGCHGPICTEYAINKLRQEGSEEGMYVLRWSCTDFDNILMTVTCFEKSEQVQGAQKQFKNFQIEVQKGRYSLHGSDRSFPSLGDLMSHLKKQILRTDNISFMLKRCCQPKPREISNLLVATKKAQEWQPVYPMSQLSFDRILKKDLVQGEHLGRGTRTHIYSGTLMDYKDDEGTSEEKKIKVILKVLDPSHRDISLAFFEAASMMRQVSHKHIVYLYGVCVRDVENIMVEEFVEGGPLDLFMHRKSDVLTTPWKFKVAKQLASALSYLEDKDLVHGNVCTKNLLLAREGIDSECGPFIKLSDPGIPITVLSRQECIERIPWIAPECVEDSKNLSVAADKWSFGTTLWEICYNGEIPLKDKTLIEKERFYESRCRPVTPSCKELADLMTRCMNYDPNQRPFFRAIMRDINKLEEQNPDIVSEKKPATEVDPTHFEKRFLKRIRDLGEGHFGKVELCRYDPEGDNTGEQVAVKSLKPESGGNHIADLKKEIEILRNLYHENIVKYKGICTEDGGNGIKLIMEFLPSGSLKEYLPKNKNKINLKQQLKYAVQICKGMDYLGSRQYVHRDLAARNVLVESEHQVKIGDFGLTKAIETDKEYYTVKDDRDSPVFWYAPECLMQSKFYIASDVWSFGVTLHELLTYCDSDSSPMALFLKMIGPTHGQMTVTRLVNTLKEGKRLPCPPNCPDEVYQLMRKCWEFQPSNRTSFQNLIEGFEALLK

Row | SMILES | IC50 (JAK1) [nM] | IC50 (JAK2) [nM] | IC50 (JAK3) [nM]
1 | COC(=O)NC1CCN(C(=O)c2cc(NC(C)c3ccncc3)nc(-c3cnn4ccsc34)n2)CC1 (stereo not drawn) [Example 162, Methyl 1-[2-(pyrazolo[5,1 b][1,3]thiazol-7-yl)-6-[1-(pyridin-4-yl)ethyl]aminopyrimidine-4-carbonyl]piperidin-4-ylcarbamate] | 1100 | > 10000 | > 10000
2 | C[C@@H](Nc1cc(C(=O)N2CCC(NC(=O)OCC(F)(F)F)CC2)nc(-c2cnn3ccsc23)n1)C(C)(C)C [Example 104, 2,2,2-Trifluoroethyl (1-{[6-{[(2R)-3,3-dimethylbutan-2-yl]amino}-2-(pyrazolo[5,1-b][1,3]thiazol-7-yl)pyrimidin-4-yl]carbonyl}piperidin-4-yl)carbamate] | 200 | 3000 | 3400
3 | N#CC1(Nc2cc(C(=O)N3CCC(O)CC3)nc(-c3cnn4ccsc34)n2)CC1 [Example 117, 1-({6-[(4-Hydroxypiperidin-1-yl)carbonyl]-2-(pyrazolo[5,1-b][1,3]thiazol-7-yl)pyrimidin-4-yl}amino)cyclopropanecarbonitrile hydrochloride] | 1400 | > 10000 | 5700
4 | COC(=O)NC1CCN(C(=O)c2cc(NCC(F)(F)F)nc(-c3cnn4ccsc34)n2)CC1 [Example 158, Methyl (1-2-(pyrazolo[5,1-b][1,3]thiazol-7-yl)-6-[(2,2,2-trifluoroethyl)amino]pyrimidine-4-carbonylpiperidin-4-yl)carbamate] | 1300 | > 10000 | > 10000
5 | CCOc1c(N[C@@H](C)C2CC2)nc(-c2cnn3ccsc23)nc1C(=O)N1CCC(NC(=O)OC)CC1 [Example 154, Methyl (1-{[6-{[(1S)-1-cyclopropylethyl]amino}-5-ethoxy-2-(pyrazolo[5,1-b][1,3]thiazol-7-yl)pyrimidin-4-yl]carbonyl}piperidin-4-yl)carbamate] | 180 | 5300 | 3100
6 | O=C(NC1CCN(C(=O)c2cc(NCC3CNC3)nc(-c3cnn4ccsc34)n2)CC1)C1CC1 [Example 78, N-[1-({6-[(Azetidin-3-ylmethyl)amino]-2-(pyrazolo[5,1-b][1,3]thiazol-7-yl)pyrimidin-4-yl}carbonyl)piperidin-4-yl]cyclopropanecarboxamide] | 4100 | > 10000 | > 10000
7 | COC(=O)NC1CCN(C(=O)c2cc(N[C@H](C)C3CCCCC3)nc(-c3cnn4ccsc34)n2)CC1 [Example 161, Methyl 1-[6-[(1R)-1-cyclohexylethyl]amino-2-(pyrazolo[5,1-b][1,3]thiazol-7-yl)pyrimidine-4-carbonyl]piperidin-4-ylcarbamate] | 47 | > 10000 | > 10000
8 | Cc1c(N[C@@H](C)C(C)(C)C)nc(-c2cnn3ccsc23)nc1C(=O)N1CCC(NC(=O)C2CC2)CC1 [Example 7, N-(1-{[6-{[(2S)-3,3-Dimethylbutan-2-yl]amino}-5-methyl-2-(pyrazolo[5,1-b][1,3]thiazol-7-yl)pyrimidin-4-yl]carbonyl}piperidin-4-yl)cyclopropanecarboxamide] | 69 | > 10000 | 2700
9 | CC(C)(C)Nc1cc(C(=O)N2CCC(Nc3ccccn3)CC2)nc(-c2cnn3ccsc23)n1 [Example 72, [6-(tert-Butylamino)-2-(pyrazolo[5,1-b][1,3]thiazol-7-yl)pyrimidin-4-yl][4-(pyridin-2-ylamino)piperidin-1-yl]methanone] | 310 | 6100 | 5900
10 | CCC(CC)COc1cc(C(=O)N2CCC(NC(=O)C3CC3)CC2)nc(-c2cnn3ccsc23)n1 [Example 107, N-(1-{[6-(2-Ethylbutoxy)-2-(pyrazolo[5,1-b][1,3]thiazol-7-yl)pyrimidin-4-yl]carbonyl}piperidin-4-yl)cyclopropanecarboxamide] | 200 | 3500 | 1600
11 | COc1ccc([C@@H](C)Nc2cc(C(=O)N3CCC(O)CC3)nc(-c3cnn4ccsc34)n2)cc1 [Example 56, (4-Hydroxypiperidin-1-yl) [6-{[(1R)-1-(4-methoxyphenyl)ethyl]amino}-2-(pyrazolo[5,1-b][1,3]thiazol-7-yl)pyrimidin-4-yl]methanone] | 940 | 7300 | > 10000
12 | CC(=O)NC1CCN(C(=O)c2cc(N[C@@H](C)C(C)(C)C)nc(-c3cnn4ccsc34)n2)CC1 [Example 4, N-(1-{[6-{[(2S)-3,3-Dimethylbutan-2-yl]amino}-2-(pyrazolo[5,1-b][1,3]thiazol-7-yl)pyrimidin-4-yl]carbonyl}piperidin-4-yl)acetamide] | 210 | 730 | 3000

The remaining compounds from weak to strong by IC50 (JAK1), led by results:

Row | IC50 (JAK1) [nM] | IC50 (JAK2) [nM] | IC50 (JAK3) [nM] | SMILES
13 | 2600 | > 10000 | > 10000 | O=C(NC1CCN(C(=O)c2cc(NCc3cccs3)nc(-c3cnn4ccsc34)n2)CC1)C1CC1 [Example 159, N-1-[2-(pyrazolo[5,1-b][1,3]thiazol-7-yl)-6-[(thiophen-2-yl)methyl]aminopyrimidine-4-carbonyl]piperidin-4-ylcyclopropanecarboxamide]
14 | 1600 | > 10000 | > 10000 | CC(Nc1cc(C(=O)N2CCC(NC(=O)C3CC3)CC2)nc(-c2cnn3ccsc23)n1)c1ccncc1 (stereo not drawn) [Example 170, N-1-[2-(pyrazolo[5,1-b][1,3]thiazol 7 yl) 6 [1-(pyridin-4-yl)ethyl]aminopyrimidine-4-carbonyl]piperidin-4-ylcyclopropanecarboxamide]
15 | 560 | > 10000 | > 10000 | COC(=O)NC1CCN(C(=O)c2cc(NC3CCCCC3)nc(-c3cnn4ccsc34)n2)CC1 [Example 180, Methyl 1-[6-(cyclohexylamino)-2-(pyrazolo[5,1-b][1,3]thiazol-7-yl)pyrimidine-4-carbonyl]piperidin-4-ylcarbamate]
16 | 320 | > 10000 | > 10000 | O=C(NC1CCN(C(=O)c2cc(NC3CCOCC3)nc(-c3cnn4ccsc34)n2)CC1)C1CC1 [Example 172, N-(1-6-[(oxan-4-yl)amino]-2-(pyrazolo[5,1-b][1,3]thiazol-7-yl)pyrimidine-4-carbonylpiperidin-4-yl)cyclopropanecarboxamide]
17 | 310 | 2200 | 4700 | CCC(=O)NC1CCN(C(=O)c2cc(N[C@@H](C)CC)nc(-c3cnn4ccsc34)n2)CC1 [Example 131, N-[1-({6-[(2S)-Butan-2-ylamino]-2-(pyrazolo[5,1-b][1,3]thiazol-7-yl)pyrimidin-4-yl}carbonyl)piperidin-4-yl]propanamide]
18 | 200 | 3700 | 4000 | CCOC(=O)NC1CCN(C(=O)c2cc(NC(C)(C)C)nc(-c3cnn4ccsc34)n2)CC1 [Example 71, Ethyl (1-{[6-(tert-butylamino)-2-(pyrazolo[5,1-b][1,3]thiazol-7-yl)pyrimidin-4-yl]carbonyl}piperidin-4-yl)carbamate]
19 | 200 | 2500 | > 10000 | CCC(CC)Oc1cc(C(=O)N2CCC(NC(=O)OC)CC2)nc(-c2cnn3ccsc23)n1 [Example 108, Methyl (1-{[6-(pentan-3-yloxy)-2-(pyrazolo[5,1-b][1,3]thiazol-7-yl)pyrimidin-4-yl]carbonyl}piperidin-4-yl)carbamate]
20 | 140 | > 10000 | > 10000 | CC(C)(C)[C@@H](CO)Nc1cc(C(=O)N2CCC(NC(=O)C3CC3)CC2)nc(-c2cnn3ccsc23)n1 [Example 55, N-(1-{[6-{[(2S)-1-Hydroxy-3,3-dimethylbutan-2-yl]amino}-2-(pyrazolo[5,1-b][1,3]thiazol-7-yl)pyrimidin-4-yl]carbonyl}piperidin-4-yl)cyclopropanecarboxamide]
21 | 140 | 1200 | 3000 | CC(C)OC(=O)NC1CCN(C(=O)c2cc(N[C@H](C)C(C)(C)C)nc(-c3cnn4ccsc34)n2)CC1 [Example 29, Propan-2-yl (1-{[6-{[(2R)-3,3-dimethylbutan-2-yl]amino}-2-(pyrazolo[5,1-b][1,3]thiazol-7-yl)pyrimidin-4-yl]carbonyl}piperidin-4-yl)carbamate]
